One compound from patent US6638963B1, “Methods for treating circadian rhythm disorders” (Oregon Health and Science University, priority 1990, dated 2003) can be followed below.

Common to all, as to format: in vivo, human
Assay [1] concerns dim light melatonin onset (DLMO). Put plainly: Melatonin phase response curve trials, two doses of 0.25 mg two hours apart (Example 2). Particulars: four days, nine subjects, 30 trials, time referenced to first capsule. The protocol:
(§1) Prior to collection of human blood, subjects were kept in dim light for about 5 hours (usually between 6 p.m. and 11 p.m.). An intravenous line or heparin lock was inserted in a forearm vein and 5 mL of blood drawn every 30 minutes between 7 p.m. and 11 p.m. The blood samples were centrifuged for 5 minutes at 1000 g and 4° C., and the plasma aspirated into a silanized glass or plastic tube. Samples were assayed immediately or frozen for later analysis. Saliva samples can alternatively be collected and analyzed
To a 1 mL aliquot of such plasma was added 50 picograms of N-acetyl-5-methoxy(α,α,β,β-D4)tryptamine as a chromatographic control. […]
(§2) The amount of melatonin present in each sample was determined by gas chromatographic-mass spectrometric analysis. […]
Mass spectrographic analysis of the column eluant was then performed. Mass spectra were recorded using a Hewlett Packard 5989A mass spectrometer with an ETP Scientific electron multiplier using HP Chemstation software. The relative signals of melatonin and the added N-acetyl-5-methoxy(α,α,β,β-D4)tryptamine control were detected at m/e (mass/charge) ratios of 320 and 323, respectively. […]
Melatonin was administered to nine subjects as two doses of 0.25 mg, two hours apart, thereby simulating a sustained-release (SR) formulation. […] Phase shifts were calculated by subtracting the post-treatment DLMO from the pre-treatment DLMO. […]

In assay [2] the test system is patients with winter depression. Put plainly: Treatment of patients with winter depression, SIGH-SAD depression ratings, melatonin versus placebo (Example 11). Conditions: for SIGH-SAD change score from pre-treatment: 0.125 mg per capsule at about CT 8 and about CT 12, N=5, p<0.05 vs placebo. How it is done: Patients with winter depression were treated with either melatonin (N=5) or placebo (N=5). All subjects were screened prior to being admitted into the study and met the following criteria: 1) the DSM-IV criteria (American Psychiatric Association, 1994) for moderate to severe major depressive disorder (without psychotic episodes) or bipolar disorder (depressed or not otherwise specified) with a winter type seasonal pattern; 2) scored […] on the Structured Interview Guide for the Hamilton Depression Rating Scale Seasonal Affective Disorder Version (SIGH-SAD) (Williams et al., 1994, Structured Interview Guide for the Hamilton Depression Scale-Seasonal Effective Disorder Version (SIGH-SAD), New York: New York State Psychiatric Institute) with Hamilton Depression Scale (HAM-D) (Hamilton, 1967, Brit. J. Soc. Clin. Psychol. 6: 278-296)≦10 and an atypical score ≦5 ([…] et al., 1990, Neuropsychopharmacol. […] Prior to inclusion in the study, subjects were interviewed by a physician and also completed 7 a health and sleep screening questionnaire. Written informed consent was obtained for all participants. The study was a three-week, parallel-group design, consisting of a pre-treatment assessment followed by three treatment weeks. Subjects were randomly assigned to either a melatonin or placebo group and were counter balanced based on their initial depression scores (SIGH-SAD) and their reported awakening times. Each group received melatonin or placebo in two daily capsules at about CT 8 and about CT 12, estimated from each subject's initial reported awakening time (about CT 0). The dose of melatonin was 0.125 mg per capsule. For behavioral ratings, subjects were initially interviewed face-to-face using the 29-item Structured Interview Guide for the Hamilton Depression Rating Scale-Seasonal Affective Disorder version (SIGH-SAD). Two subsequent interviews were done weekly by telephone and the third and final interview was conducted in person. All interviews were conducted by a researcher blind to treatment conditions. For the three-week period, subjects completed a Likert daily rating form and a daily sleep diary. To specifically assess fatigue associated with the capsule, subjects also completed a Profile of Mood States (POMS) 30 minutes after ingestion of each capsule. In addition, pre-study and weekly expectations questionnaires were completed. Ten patients (9 females) with winter depression were admitted into the study. The mean age of the melatonin group was 37 (SD=13.6; range: 22-58) and the placebo group was 32.2 (SD=8.6; range: 22-42). The mean pre-treatment SIGH-SAD score for the placebo group was 29.4; the melatonin group mean was 29.2. The initial reported mean wake up time for the placebo group was 7:12 AM; the melatonin group mean was 7:20 AM. […]

Assay [3] relates to endogenous circadian pacemaker. As to the kind of experiment: Dose effect of melatonin on shift of the endogenous circadian pacemaker. Conditions: melatonin dosages from about 0.125 mg to about 0.5 mg. From the text: The present invention contemplates the administration of various doses of melatonin which promote quantitative shifts in an individual's endogenous circadian pacemaker. The administration of sufficient doses of melatonin is capable of shifting the endogenous circadian pacemaker, as well as the melatonin PRC, by an appropriate degree. […] The amount of melatonin administered to a human subject should be sufficient to achieve the desired circadian rhythm phase-shifting effect. In a preferred embodiment of this invention, a dosage of about 0.01 mg to about 100 mg, more preferably about 0.1 mg to about 10 mg, most preferably about 0.1 mg to about 1 mg, of exogenous melatonin is used to effect the desired change in phase of the circadian rhythm of endogenous melatonin production. For the purposes of this invention, the term “exogenously administered melatonin” encompasses various formulations of melatonin, melatonin agonists (that is, compounds that mimic melatonin's actions) and compounds that raise endogenous melatoriin levels. Therefore, whenever reference is made to increasing plasma melatonin levels due to administration of exogenous melatonin, this refers also to increasing plasma melatonin levels due to administration of a melatonin stimulant and increasing equivalent agonist levels due to administration of a melatonin agonist. […]

The test system of assay [4] is dim light melatonin onset (DLMO). As to the kind of experiment: Melatonin phase response curve trials, single 0.5 mg immediate-release dose (Example 3). How it is done:
as §1
To a 1 mL aliquot of such plasma was added 50 picograms of N-acetyl-5-methoxy(α,α,β,β-D4)tryptamine as a chromatographic control. An equal volume of normal saline was added and the mixture gently shaken with 8 volumes of petroleum ether. The organic phase was removed, and melatonin and the added N-acetyl-5-methoxy(α,α,β,β-D4)tryptamine control extracted from the aqueous phase with 8 volumes of chloroform. The aqueous phase was then discarded, and the chloroform evaporated to dryness.
The dried extract containing melatonin and the added N-acetyl-5-methoxy(α,α,β,β-D4)tryptamine control was dissolved in 50 μL ethyl acetate. The melatonin contained in the plasma samples and the added N-acetyl-5-methoxy(α,α,β,β-D4)tryptamine control were then derivatized by the addition of 50 μL of pentafluoroproprionic acid anhydride and reacted at 70° C. for 10 minutes. These reaction products were then evaporated to dryness under nitrogen. The dried extract was partitioned between 0.5 mL acetonitrile and 1 mL hexane by vigorous mixing followed by centrifugation and removal of the hexane layer. This partitioning step was repeated twice more, except that the hexane was not removed after the final partitioning. […]
as §2
Mass spectrographic analysis of the column eluant was then performed. Mass spectra were recorded using a Hewlett Packard 5989A mass spectrometer with an ETP Scientific electron multiplier using HP Chemstation software. The relative signals of melatonin and the added N-acetyl-5-methoxy(α,α,β,β-D4)tryptamine control were detected at m/e (mass/charge) ratios of 320 and 323, respectively. The amount of melatonin present in any unknown sample can be determined by comparison of the ratio of the intensities of these signals to a standard curve, prepared as described using known amounts of melatonin and added N-acetyl-5-methoxy(α,α,β,β-D4)tryptamine control.
Melatonin was administered to five subjects as a single 0.5 mg (or immediate-release (IR)) dose. […] Dim light melatonin onset (DLMO) times were determined at the end of each week. Phase shifts were calculated from a comparison of the post-treatment DLMO to the pre-treatment DLMO. […]

The mark [5] stands for this setting: both PRC studies (Examples 2 and 3).

`COc1ccc2[nH]cc(CCNC(C)=O)c2c1` [melatonin, N-acetyl-5-methoxytryptamine]: in assay [1], the “circadian time of administration at which maximal phase advances occur” value is given as approximately 7.5 CT. The “SIGH-SAD change score from pre-treatment” value in assay [2] (Week 1) was found to be 15.4; in assay [2] (Week 2), 16.8. The “responders (39% or greater decrease in SIGH-SAD ratings to a score of 21 or less)” value in assay [2] (five subjects per group, one responder in placebo group, p=0.048, Fisher's Exact test) is recorded as “all five subjects responded”. Besides, the “SIGH-SAD scores after two weeks of capsules, melatonin versus placebo” value in assay [2] (one-tailed unpaired t-test, p=0.05) is reported as “significant difference”. In addition, the “dose effect on shift of endogenous circadian pacemaker” value in assay [3] is “linear dose effect”. For the same compound, in assay [4] (setting [5]), the “crossover point between advance and delay responses of the melatonin PRC” value is approximately 18 CT. Moreover, the “crossover point between delay and advance responses of the melatonin PRC” value in assay [4] (setting [5]) is approximately 6 CT. Besides, the “circadian time for maximal phase advances” value in assay [4] (single 0.5 mg IR dose, four days, five subjects, twelve trials each) was approximately 11 CT. Besides, the “circadian time at which phase delays begin” value in assay [4] (single 0.5 mg IR dose, same time as found in Example 2) is recorded as approximately 6 CT.
